Patent US20090301508A1, “Cosmetic Composition and Preparation Method and Use Thereof” (priority 2006, published 2009)
Structures can show the parent of a compound that is named as a salt.

How the values were obtained:
TA102 = test: AmesTest, strain TA102
Method: (§1) 4.3 Sample processing and preparation: 4000 mg sample was weighted and distilled water was added into the sample to 20 ml, then the mixture was blended to obtain a 200 mg/ml of solution. 3, 1, 0.3 and 0.1 mL of this solution were taken, respectively and each was added with sterile distilled water to 10 ml to obtain a solution in the concentration of 60 mg/ml, 20 mg/ml, 6 mg/ml and 2 mg/ml, respectively.
(§2) 4.4 Test doses: 0.2 mg/dish, 0.6 mg/dish, 2 mg/dish, 6 mg/dish and 20 mg/dish
(§3) 4.7 Test strains: TA97, TA98, TA100 and TA102, with qualitied biological characters, provided by Biochemistry Dept., California University, CA, America. The concentration of the bacteria liquid used for the test was 1-2×10^9/ml.
A healthy adult SD rat with a body weight of about 150 g was selected. Polychlorinatedbiphenyl was dissolved into corn oil to obtain a solution of 200 mg/ml. The above solution was injected (i.p.), in a sterile operation, into the rat in a dose of 500 mg/kg. 5 days later, the animal was sacrificed via decapitation. The liver was taken out and weighted, then rinsed several times with 0.15 mol/L of fresh cooled solution of potassium chloride. The amount of the potassium chloride solution was 3 ml/g liver (wet weight). The beaker in which the rinsed liver put was removed into an ice bath, and the liver was cut into pieces with a pair of sterilized scissors. The liver was homogenized with a tissue homogenizer (2000 r/min, 1 min), then the liver homogenate thus prepared was centrifuged in a high speed centrifuge (0-4° C., 9000 g, 10 min). The supernatant, S9 part, was packed into several sterile tubes and conserved in liquid nitrogen. The above steps need to be operated in a sterile and cooled local circumstance. The S9 thus prepared was further identified for its content of protein and bioactivity of indirect mutagen.
Standard plate incorporation on the basis of GB15193-94: Into the top agar (45° C., 2 ml), the bacterial liquid 0.1 ml, Sample 0.1 ml and S9 mixture 0.5 ml for activation were added sequently. The mixture was blended sufficiently and poured rapidly onto the underlayer medium. After the incubation of 48 hr. at 37° C., results were observed. each test was repeated once more.

[1] = test system: philo-pleochromatic akaryocytes in animal marrow; test: Micronucleus Test; assay type: in vivo, mice; conditions: positive control 40 mg/kg; for Micronucleated Cells No.: 5000 cells tested
Method: 2.2 Preparation of sample: Sample 5000, 2500 or 1250 mg was weighted and grinded. Distilled water was added into the grinded sample to 20 ml, and the mixture was blended sufficiently to form a test sample.
2.3 Animal subject: Kunming species of mice, 25-30 g, provided by experimental animal department, Fudan University. Certificate No.: 02-22-1.
2.5.1 Animals were divided randomly into 5 groups, 10 in each group with half of female and half of male. In the five groups, there were three groups for three doses of test sample, one negative control group, distilled water, and one positive control group, cyclophosphaide.
2.5.2. Animals were weighted and administrated with the test sample or control substances in different concentrations in a volume of 0.4 ml/20 g via an intragastric catheter, and the administration is repeated once more in 30 hr.
2.5.3 Animals were sacrificed via cervical bertebra dislocation 6 hr. after the second intragastric administration. The marrow was taken out of the femoral bone and blended uniformly with calf serum. Then, the film preparation, the fixation, and Giemasa stain were undertaken conventionally.
2.5.4 Test under microscope: Numbers of micronuclei were counted in over one thousand of philo-pleochromatic akaryocytes. Incidence rates of micronuclei were calculated and analyzed statistically.

spermatozoa = test: Teratospermia Test; assay type: in vivo, mice; conditions: positive control 40 mg/kg
Method: 3.2 Preparation of sample: Sample 5000, 2500 or 1250 mg was weighted and grinded. Distilled water was added into the grinded sample to 20 ml, and the mixture was blended sufficiently to obtain a test sample.
3.3 Animal subject: Male mice, depuratory grade, 25-30 g, provided by experimental animal department, Fudan University. Certificate No.: 02-22-1.
3.5.1 Animals were divided randomly into 5 groups, 5 in each group. It the five groups, there were three groups for three doses of test sample, one negative control group, distilled water, and one positive control group, cyclophosphaide.
3.5.2. Animals were weighted and administrated with the test sample or control substances in different concentrations in a volume of 0.4 ml/20 g via an intragastric catheter, once a day for 5 days.
3.5.3 Animals were sacrificed via cervical bertebra dislocation 35 days after the first intragastric administration. The ambo-epididymises were taken off and put into normal saline. After being cut into pieces, they were filtered through a four layer gauze. The filter was smeared, fixed and dyed with 2% eosin.
3.5.4 Test under microscope: Amounts of teratosperm in 1000 spernatozoas were counted per mouse and rates of teratospermia were calculated statistically.

TA100 = test: AmesTest, strain TA100
Method: as §1, §2, §3
A healthy adult SD rat with a body weight of about 150 g was selected. Polychlorinatedbiphenyl was dissolved into corn oil to obtain a solution of 200 mg/ml. The above solution was injected (i.p.), in a sterile operation, into the rat in a dose of 500 mg/kg. 5 days later, the animal was sacrificed via decapitation. The liver was taken out and weighted, then rinsed several times with 0.15 mol/L of fresh cooled solution of potassium chloride. The amount of the potassium chloride solution was 3 ml/g liver (wet weight). The beaker in which the rinsed liver put was removed into an ice bath, and the liver was cut into pieces with a pair of sterilized scissors. […]

M cells = test: tissue culture experiments, growth of M cells / collagen fiber network; assay type: cell-based; conditions: vs control group (P>0.05)
Source text: The difference in comparison with the control group is statistically significant ([…]).

[2] = Salmonella typhimurium, 48 h, 1 μl/dish

SMILES: O=C1c2cccc(O)c2C(=O)c2c(O)cccc21 [1,8-dioxy anthraquinone]
- Re-established colonies (TA102; first test, TA102 +S9, positive control 50 μl/dish): 885 ± 56 colonies/sish
- Re-established colonies (TA102; second test, TA102 +S9, positive control 50 μl/dish): 975 ± 86 colonies/sish

SMILES: O=P1(N(CCCl)CCCl)NCCCO1 (stereo not shown) [Cyclophosphaide]
- Rate of Micronuclei (‰) ([1]; F): 25.8 ‰
- Micronucleated Cells No. ([1]; F): 129
- Rate of Micronuclei (‰) ([1]; M): 26.4 ‰
- Micronucleated Cells No. ([1]; M): 132
- Aberration rate (‰) (spermatozoa): 58.4 ‰
- Type of aberration (n): Banana sharp (spermatozoa; 5000 spernatozoa tested): 32
- Type of aberration (n): Double head (spermatozoa; 5000 spernatozoa tested): 4
- Type of aberration (n): Double tail (spermatozoa; 5000 spernatozoa tested): 6
- Type of aberration (n): Fat head (spermatozoa; 5000 spernatozoa tested): 45
- Type of aberration (n): Fold tail (spermatozoa; 5000 spernatozoa tested): 2
- Type of aberration (n): No crook (spermatozoa; 5000 spernatozoa tested): 28
- Type of aberration (n): amorphism (spermatozoa; 5000 spernatozoa tested): 175

SMILES: COS(C)(=O)=O [Methyl mesylate]
- Re-established colonies (TA100; [2]): 1641 ± 80 colonies/sish
- Re-established colonies (TA100; first test, TA100 −S9, positive control 1 μl/dish): 1463 ± 84 colonies/sish
- Re-established colonies (TA102; [2]): 2520 ± 112 colonies/sish
- Re-established colonies (TA102; first test, TA102 −S9, positive control 1 μl/dish): 2784 ± 289 colonies/sish

SMILES: C[C@@H]1O[C@@H](O[C@@H]2[C@@H](O)[C@H](OCCc3ccc(O)c(O)c3)O[C@H](CO)[C@H]2OC(=O)/C=C/c2ccc(O)c(O)c2)[C@H](O)[C@H](O)[C@H]1O [acteoside, Acteoside]
- promotion on the growth of M cells (M cells): obvious promotion
